Structures are written as SMILES.

The test has as its target Beta-secretase 1 (Homo sapiens, UniProt P56817). The experiment in a line: Inhibition of BACE1.

Beta-secretase 1, sequence (P56817 whole entry): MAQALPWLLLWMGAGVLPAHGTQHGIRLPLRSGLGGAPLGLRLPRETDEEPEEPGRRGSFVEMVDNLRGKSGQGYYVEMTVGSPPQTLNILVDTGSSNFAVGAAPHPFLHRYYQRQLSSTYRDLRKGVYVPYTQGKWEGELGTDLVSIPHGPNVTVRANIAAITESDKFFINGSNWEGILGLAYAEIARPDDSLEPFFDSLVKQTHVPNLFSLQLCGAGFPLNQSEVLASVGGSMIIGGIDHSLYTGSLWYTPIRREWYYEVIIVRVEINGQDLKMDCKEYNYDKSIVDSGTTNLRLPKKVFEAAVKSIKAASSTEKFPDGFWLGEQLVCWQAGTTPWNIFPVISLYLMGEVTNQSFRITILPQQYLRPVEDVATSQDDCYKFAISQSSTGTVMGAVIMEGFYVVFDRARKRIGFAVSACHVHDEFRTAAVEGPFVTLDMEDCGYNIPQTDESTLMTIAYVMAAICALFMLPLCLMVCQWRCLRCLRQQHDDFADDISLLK

Turning to `CC(C)C(=O)c1cc(-c2nnc([C@](C)(N)Cc3ccccc3)o2)cc(N(C)S(C)(=O)=O)c1`, the Ki is 16.5 µM (read-out: Ki) and 15.8 µM (read-out: Log Ki (converted)).
For `CCCN(c1cc(/C=C\C2CC2C)cc(-c2nnc([C@](C)(N)Cc3ccccc3)o2)c1)S(C)(=O)=O` (some centres undefined), in that order: 0.0519 µM and 0.0501 µM.

The values above are taken from ChEMBL document CHEMBL1138425, “Beta-secretase (BACE-1) inhibitors: accounting for 10s loop flexibility using rigid active sites” (Bioorg Med Chem Lett, 2007).
